Measured values published in ChEMBL document CHEMBL3507680, “University of Dundee, Gates Library screen for HepG2 cell viability”.

Test: Human HepG2 cell viability assay in 384 well format
Type: toxicity, cell-based
Parameters: dose 125 nL, time 70.5 hour; concentration not given beside the values
Settings: HepG2 cells, read-out: Inhibition

SMILES	cytotoxicity at 70.5 h [%]
CN(C)C(=O)N1CC(=O)NCC12CCN(C(=O)c1ccco1)C2 (configuration not stated)	-7.28
CS(=O)(=O)NCc1cncc2c1CCN(C(=O)c1ccccn1)C2	-12.5
CC(C)NC(=O)C1Cc2nc(-c3ccsc3)sc2N1CC1CC1 (configuration not stated)	-6.43
Cc1cccc(CN2CCC3(CCCN(Cc4cnn(C)c4)C3)C2=O)n1 (configuration not stated)	-18.3
COCC1CN(C(=O)c2ccccn2)Cc2nccn2C1 (configuration not stated)	-11.1
Cn1cc(CN2CCCC3(CCN(Cc4ccncc4)C3=O)C2)cn1 (configuration not stated)	-10.1
CCCNC(=O)c1cc2c(s1)CCN2C(=O)c1ccccc1	14.2
Cc1cncc(C(=O)N2CCc3ncc(Cn4cccn4)n3CC2)c1	22.9
COCC(=O)N1Cc2nccn2CC(Cn2ncccc2=O)C1 (configuration not stated)	-10
Cc1noc(C)c1CN1CCC2(CC1)NC(=O)CC2c1cnn(C)c1 (configuration not stated)	-8.52
O=C(c1ccc[nH]1)N1CCN(Cc2ccncc2)c2ncccc2C1	-11.6
O=C(c1ccco1)N1Cc2nccn2CC(Cn2ncccc2=O)C1 (configuration not stated)	-6.66
O=C(c1ccoc1)N1CCc2ncc(Cn3cccn3)n2CC1	-7.98
Cn1cc(C2CC(=O)NC23CCN(Cc2nccs2)CC3)cn1 (configuration not stated)	-9.24
COCC(=O)N1CC[C@H]2C[C@H](c3nnc(C4CC4)o3)O[C@@H]2C1	-8.34
Cc1ccc(C(=O)N2CCc3ncc(Cn4cccn4)n3CC2)cn1	-6.29
CC(C)CO[C@@H]1CC[C@H]2[C@H]1OCCN2S(=O)(=O)C1CC1	12.4
NC(=O)N1Cc2nccn2CC(Cn2ncccc2=O)C1 (configuration not stated)	1.65
O=C(N1CCCC1)N1Cc2nccn2CC(Cn2ncccc2=O)C1 (configuration not stated)	-0.168
c1cnc(NC[C@H]2OC[C@@H]3CCN(Cc4ccncc4)C[C@@H]32)nc1	17.4
CN(Cc1cccnc1)[C@@H]1CN(c2ccccn2)[C@@H]2CCCO[C@H]12	-9.04
CNC(=O)[C@H]1C[C@@H]2CN(C(=O)c3occc3C)C[C@@H]2N1S(C)(=O)=O	-5.67
CC1c2ncc(Cn3cncn3)n2CCN1C(=O)c1cscn1 (configuration not stated)	20.8
COCCN1Cc2ccccc2C2(CCN(S(C)(=O)=O)CC2)C1	-5.3
O=C(C1CCOC1)N1CCN(Cc2ccncc2)c2ncccc2C1 (configuration not stated)	-9.12
O=C(c1cnccn1)N1CCC2(CCN(Cc3ccsc3)CC2)CC1	-2.48

SMILES	cytotoxicity at 70.5 h [%]
O=C(c1cnccn1)N1CCC2(CCN(Cc3ccsc3)C2)CC1	-5.07
O=C(N1CCCO1)[C@@]12CCO[C@@H]1CCN(Cc1ccsc1)C2	-6.2
Cc1cnc(N2CCc3c(CN(C)Cc4ccco4)cncc3C2)nc1	-5.82
Cc1occc1C(=O)N1CCn2c(Cn3cncn3)cnc2C1C (configuration not stated)	50.5
Cc1nc(CN2C(=O)CCC23CCN(c2ncccc2C)CC3)cs1	33.3
CCOCC1CN(C(=O)c2ccco2)Cc2cnn(C)c21 (configuration not stated)	-2.81
CS(=O)(=O)N[C@H]1COC[C@@H]2CN(Cc3ccco3)C[C@@H]21	-5.39
CCC(C)N1CCc2nc(N3CCCC3)nc(NC(C)C)c2C1 (configuration not stated)	-7.15
CC(C)CCN1C2(CCN(C(=O)N(C)C)C2)c2ccccc2S1(=O)=O (configuration not stated)	-17.2
COCC1c2nnn(CC3CC3)c2CCN1C(=O)Cc1cccs1 (configuration not stated)	-8.15
CCC(=O)N1CCC2(CC1)COc1ccccc1S(=O)(=O)N(C)C2	-14.6
Cc1ncsc1CN1C[C@@H](OCC2CC2)[C@H]2OCCC[C@H]21	-5.13
Cc1noc(C2CCC3(CCN(C(=O)C4=CCCCC4)CC3)O2)n1 (configuration not stated)	-6.87
CCn1ncc2c1C(COC)CN(Cc1ccc(OC)cc1)C2 (configuration not stated)	-5.26
CCC(=O)N1CCC2(COCc3c(C)nc(N(C)C)nc32)C1 (configuration not stated)	20.3
CCOCc1ncn2c1CN(C(=O)Nc1cccc(C)c1)CC2	-6.82
Cc1ccc(N2CC[C@H](OCC3CC3)[C@@H]2Cc2cnn(C)c2)nn1	0.692
O=C(C1=CCCC1)N1C[C@H](Oc2cccnc2)[C@H]2OCCC[C@H]21	-4.92
O=C(c1ccnnc1)N1C[C@H](Oc2cccnc2)[C@H]2OCCC[C@H]21	3.85
O=C(c1ccc[nH]1)N1C[C@H](OCc2cccnc2)[C@H]2COC[C@H]21	5.01
Cc1cccc(CN2CC3(CCNCC3)OCC2=O)n1	0.469
CN(C)c1ncc(-c2cc(C(=O)O)n(CC3CC3)c2)cn1	-4.19
CC(C)(C)CC(=O)N1CC[C@@H]2[C@H](CC1)N(S(C)(=O)=O)CCS2(=O)=O	-5.98
Cc1ccc(N2CCc3c(CN(C)Cc4ccco4)cncc3C2)nn1	-9.85
Fc1ccc(CN2CCO[C@H]3[C@H](OCC4CCCC4)CC[C@@H]32)cc1	-9.77
CN(C)CCNC(=O)C1Cc2nc(-c3ccccc3)sc2N1CC1CC1 (configuration not stated)	-11

SMILES	cytotoxicity at 70.5 h [%]
CN(C)CCNC(=O)C1Cc2nc(-c3ccsc3)sc2N1CC1CC1 (configuration not stated)	-4.49
Cc1occc1C(=O)N1C[C@@H]2OCCN(c3ncccn3)[C@@H]2C1	-11.6
Cn1cc(N2C(=O)CC[C@@H]3[C@H]2CCN3CC2CCOCC2)cn1	-14.3
CC(=O)N1CCC(c2nc3ccc(-c4ccnn4C)cn3n2)CC1	-12.4
O=C(c1ccoc1)N1C[C@@H]2OCCN(c3ncccn3)[C@@H]2C1	1.23
CN1CC(=O)N(c2ccccc2)CC12CCN(C(=O)c1cnccn1)C2 (configuration not stated)	22.8
O=C(C1CCC1)N1CCO[C@H]2[C@H](OCCCn3cccn3)CC[C@@H]21	29
Cc1cccc(CN2CCC3(CC2)NC(=O)C[C@H]3c2cnn(C)c2)n1	-8.35
Cc1ccc(N2CC[C@H]3C[C@H](C(=O)NCc4ccco4)O[C@H]3C2)nn1	-11.1
N#Cc1ccc(N2CCCC3(CCN(c4cccnc4)CC3)C2)cc1	51.2
CNC(=O)[C@H]1CO[C@H]2CCN(c3ncc(F)cn3)C[C@H]2C1	-8.64
Cn1cc(C2CC(=O)NC23CCN(C(=O)Cc2ccccn2)CC3)cn1 (configuration not stated)	-5.18
O=C(CC1CC1)N1CCO[C@H]2[C@H](OCCCn3cccn3)CC[C@@H]21	-4.17
CN(C)C(=O)[C@H]1CO[C@H]2CCN(c3ncc(F)cn3)C[C@H]2C1	-8.69
O=C(NCc1ccco1)[C@H]1C[C@@H]2CCN(c3ncccn3)C[C@H]2O1	-5.11
O=C(Nc1cnccn1)[C@H]1CO[C@H]2CCN(c3ncc(F)cn3)C[C@H]2C1	15
Cc1ccc(N2CC[C@H]3C[C@H](C(=O)NCc4ccco4)O[C@@H]3C2)cc1	2.5
CCC(=O)N1CCC2(CC1)CN(CCO)Cc1ccccc12	1.97
Cc1ccc(CN2CCC3(CC2)CN(C(=O)c2cnccn2)CCO3)o1	-6.5
c1cnc(N2C[C@@H]3COC[C@]3(COCC3CCCC3)C2)nc1	-14.8
CCc1ccc(CN2C[C@@H]3COC[C@H](NS(C)(=O)=O)[C@@H]3C2)o1	-18.1
CN(C)C(=O)COC[C@]12COC[C@H]1CN(CC1CCC1)C2	-6.61
O=C(c1ccoc1)N1CC[C@H]2OCC[C@@]2(COc2ncccc2F)C1	-9.01
CCS(=O)(=O)N1C[C@H]2CN(Cc3cccnc3)C(=O)[C@H]2C1	16.7
CC(C)CNC(=O)[C@H]1CCS(=O)(=O)[C@@H]2CN(Cc3cccc(Cl)c3)C[C@H]12	24.3
c1nc2c(c(-c3ccsc3)n1)CCN(Cc1ccoc1)CC2	19.3

SMILES	cytotoxicity at 70.5 h [%]
CN(C)C(=O)[C@@H]1CCO[C@@H]2CCN(Cc3ccccc3)C[C@@H]21	-3.08
CC1c2ncc(Cn3cncn3)n2CCN1C1CCOCC1 (configuration not stated)	2.73
N#Cc1ccc(C(=O)N2CCn3c(Cn4cccn4)cnc3C2)cc1	7.14
COCC1c2c(cnn2CC2CC2)CCN1Cc1ccc(C)o1 (configuration not stated)	-8.01
Cn1cc(C2CC(=O)NC23CCN(Cc2ccncc2)CC3)cn1 (configuration not stated)	13.9
CN1CC(=O)N(c2cccnc2)CC12CCN(C(=O)c1cccn1C)C2 (configuration not stated)	1.98
Cc1nc2c(cc1C(=O)O)CCN(Cc1ccsc1)CC2	-6.12
CNC(=O)[C@H]1C[C@@H]2CCN(Cc3ccncc3)C[C@H]2O1	-6.07
COCCNC(=O)[C@H]1C[C@@H]2CCN(Cc3ccncc3)C[C@H]2O1	-9.09
c1cncc(N2CCCC3(CCN(CCN4CCCC4)CC3)C2)c1	-1.3
c1cnn(CCCO[C@@H]2CN(C3CCOCC3)[C@@H]3CCCO[C@@H]32)c1	4.39
O=C(Nc1cccnc1)[C@H]1CO[C@H]2CCNC[C@H]2C1	0.847
c1cnc(NC[C@H]2OC[C@@H]3CCN(Cc4ccsc4)C[C@@H]32)nc1	-6.36
Cc1nc(CN2CCC3(CCN(Cc4nccn4C)CC3)C2=O)cs1	-7.58
CC1c2ncc(CNC(=O)C3CC3)n2CCN1Cc1ccncc1 (configuration not stated)	-16.1
Cn1cnc2c1C(COCC1CC1)CN(Cc1ccc3c(c1)OCO3)C2 (configuration not stated)	36.5
CN1[C@H](Cn2cncn2)C[C@@H]2CN(Cc3cccc(C#N)c3)CC[C@@H]21	-6.46
Cc1cccc(C(=O)N2C[C@@H]3OCCN(c4ncccn4)[C@@H]3C2)n1	2.67
O=C1CC[C@@H]2[C@@H](CCN2Cc2ccncc2)N1c1ccccc1	4.02
Cn1cccc1C(=O)N1CCN(Cc2ccncc2)c2ncccc2C1	-7.79
Fc1ccc(CN2CCO[C@H]3[C@H](OCCN4CCCC4)CC[C@@H]32)cc1	-5.14
c1cc(CN2CCO[C@H]3[C@H](OCCN4CCCC4)CC[C@@H]32)ccn1	-11.7
Cc1cccc(CN2CC[C@@H]3[C@@H](CO[C@H]3CNc3ncccn3)C2)n1	-8.04
O=C(NCC1CC1)C1CN(Cc2ccncc2)Cc2ccnn2C1 (configuration not stated)	-11.9
